Series [1] addresses T1, hα7-wt nAChR (Homo sapiens, UniProt P36544). Description: Patch-clamp current recording (whole-cell voltage clamp), potentiation of choline current and PAM type. The class given is cell-based. Set-up: key: Type 0 compounds minimally enhance the effect size of the current elicited by 1 mM choline.; Type 1 compounds enhance the effect size of the current elicited by 1 mM choline but minimally alter the kinetics of the receptor.; Type 2 compounds enhance the effect size of the current elicited by 1 mM choline while reducing the rate and/or the extent of desensitization.; Type 3 compounds enhance the effect size of the current elicited by 1 mM choline. When tested at higher concentrations up to 10 μM they completely inhibit desensitization, in particular a 1 mM choline application of 250 milliseconds.; Type 4 compounds allow for an initial desensitization of the receptor followed by a re-opening of the receptor during agonist application. As to conditions: hα7-wt nAChR-expressing GH4C1 cells, 1 mM choline. The procedure, abridged: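 GH4C1 cells stably expressing human wild-type α7 nAChR, whole-cell voltage clamp at −70 mV with rapid application (<100 ms); compound co-applied with 1 mM choline. Peak current potentiation expressed relative to choline-alone response (=100%); compounds reaching ≥200% assigned PAM type 0–4 by current kinetics and desensitization.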
In general terms: The patch-clamp technique gives a direct electrical read-out from membranes.

Series [2] has as its target T1, hα7-wt nAChR. Kind of series: Ca2+ flux imaging (FDSS): potentiation of the choline response. The class given is cell-based. The note with it: Ca2+ assay as described in D.1; potentiation of choline response, hα7-wt nAChR; read-out: Potency (pEC50) (converted). Summed up: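 Cells expressing human α7-wt nAChR loaded with fluo-4AM (2 μM final) up to 120 min; HBSS/10 mM HEPES/5 mM CaCl2/0.1% BSA buffer. Compound (0.01–30 μM) applied up to 10 min before 100 μM choline; peak fluorescence measured on FDSS relative to choline alone (100%). EC50 from sigmoidal curves.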

T1 sequence (P36544 23-502): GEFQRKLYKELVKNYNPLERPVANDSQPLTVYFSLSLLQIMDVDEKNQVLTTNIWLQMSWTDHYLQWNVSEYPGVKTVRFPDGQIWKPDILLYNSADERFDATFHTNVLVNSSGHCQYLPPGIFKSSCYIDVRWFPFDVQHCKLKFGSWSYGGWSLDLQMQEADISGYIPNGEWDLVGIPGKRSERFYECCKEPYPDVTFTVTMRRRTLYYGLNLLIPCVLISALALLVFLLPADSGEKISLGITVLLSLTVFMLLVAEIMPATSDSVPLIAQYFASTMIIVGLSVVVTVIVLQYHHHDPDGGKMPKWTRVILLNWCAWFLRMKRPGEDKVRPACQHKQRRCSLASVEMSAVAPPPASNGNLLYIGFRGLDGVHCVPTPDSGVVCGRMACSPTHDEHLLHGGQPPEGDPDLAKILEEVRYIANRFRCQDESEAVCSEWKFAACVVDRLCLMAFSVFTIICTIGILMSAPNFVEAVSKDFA

A word on the melting point: it is the temperature of the solid-liquid transition. On to `CCNC(=O)Cc1cc(Nc2ccc3c(c2)OC(F)(F)O3)nn1-c1ccnc(C)c1` [Compound 98, 3-[(2,2-difluoro-1,3-benzodioxol-5-yl)amino]-N-ethyl-1-(2-methyl-4-pyridinyl)-1H-pyrazole-5-acetamide], for which the melting point came out at 239.2 °C. For the same compound, on hα7-wt nAChR [1], the PAM type was 2. The EC50 at hα7-wt nAChR [2] is 1200 nM.
In the case of `CC[C@H](O)Cc1cc(Nc2ccc(F)c(F)c2F)nn1-c1ccnc(C)c1` [Compound 18, (alphaS)-alpha-ethyl-1-(2-methyl-4-pyridinyl)-3-[(2,3,4-trifluorophenyl)amino]-1H-pyrazole-5-ethanol], the melting point worked out at 149.1 °C. The PAM type at hα7-wt nAChR [1] turned out to be 1. The EC50 on hα7-wt nAChR [2] is 2400 nM.
In the case of `Cc1cc(-n2nc(Nc3ccc(F)c(F)c3)cc2COCc2ccccc2)ccn1` [Compound 31, N-(3,4-difluorophenyl)-1-(2-methyl-4-pyridinyl)-5-[(phenylmethoxy)methyl]-1H-pyrazol-3-amine], the melting point worked out at 171 °C. Also, on hα7-wt nAChR [1], the PAM type is recorded as 0. Moreover, the EC50 at hα7-wt nAChR [2] was 1150 nM.
The like results for `CC[C@H](O)Cc1cc(Nc2cc(OC)cc(C(F)(F)F)c2)nn1-c1ccnc(C)c1` [Compound 39, (alphaS)-alpha-ethyl-3-[[3-methoxy-5-(trifluoromethyl)phenyl]amino]-1-(2-methyl-4-pyridinyl)-1H-pyrazole-5-ethanol] were, in that order, 129.2 °C, 4 and 933 nM.
In the same order, the values of `Cc1cc(-n2nc(Nc3ccc4c(c3)OC(F)(F)O4)cc2CC(=O)NC2CCC2)ccn1` [Compound 102, N-cyclobutyl-3-[(2,2-difluoro-1,3-benzodioxol-5-yl)amino]-1-(2-methyl-4-pyridinyl)-1H-pyrazole-5-acetamide] are 237.7 °C, 2 and 240 nM.
The like results for `CCNC(=O)Cc1cc(Nc2cc(Cl)cc(OC)c2)nn1-c1ccnc(C)c1` [Compound 74, 3-[(3-chloro-5-methoxyphenyl)amino]-N-ethyl-1-(2-methyl-4-pyridinyl)-1H-pyrazole-5-acetamide] were, in that order, 224 °C, 4 and 776 nM.
The compound `CC[C@H](O)Cc1cc(Nc2ccc(OC)c(C(F)(F)F)c2)nn1-c1ccnc(C)c1` [Compound 38, (alphaS)-alpha-ethyl-3-[[4-methoxy-3-(trifluoromethyl)phenyl]amino]-1-(2-methyl-4-pyridinyl)-1H-pyrazole-5-ethanol] yielded a melting point of 129 °C. Further, the PAM type at hα7-wt nAChR [1] is on record as 2. Further, the EC50 on hα7-wt nAChR [2] is 1320 nM.
In the same order, the values of `CC[C@H](O)Cc1cc(Nc2cc(F)c(F)cc2F)nn1-c1ccnc(C)c1` [Compound 21, (alphaS)-alpha-ethyl-1-(2-methyl-4-pyridinyl)-3-[(2,4,5-trifluorophenyl)amino]-1H-pyrazole-5-ethanol] are 166.6 °C, 2 and 3470 nM.
The compound `CC[C@H](O)Cc1cc(Nc2cccc(Cl)c2F)nn1-c1ccnc(C)c1` [Compound 58, (alphaS)-3-[(3-chloro-2-fluorophenyl)amino]-alpha-ethyl-1-(2-methyl-4-pyridinyl)-1H-pyrazole-5-ethanol] returned a melting point of 168.2 °C. Moreover, the PAM type at hα7-wt nAChR [1] turned out to be 1. In addition, the EC50 on hα7-wt nAChR [2] was 2510 nM.
`CNC(=O)Cc1cc(Nc2cc(OC)cc(C(F)(F)F)c2)nn1-c1ccnc(C)c1` [Compound 43, 3-[[3-methoxy-5-(trifluoromethyl)phenyl]amino]-N-methyl-1-(2-methyl-4-pyridinyl)-1H-pyrazole-5-acetamide] yielded a melting point of 237.9 °C. The PAM type on hα7-wt nAChR [1] is listed as 4. In addition, the EC50 at hα7-wt nAChR [2] was 562 nM.
In the same order, the values of `Cc1cc(-n2nc(Nc3ccc(F)c(F)c3)cc2CC(=O)NCC2CC2)ccn1` [Compound 29, N-(cyclopropylmethyl)-3-[(3,4-difluorophenyl)amino]-1-(2-methyl-4-pyridinyl)-1H-pyrazole-5-acetamide] are 230.3 °C, 2 and 692 nM.
The like results for `CC[C@H](O)Cc1cc(Nc2cccc(C(F)(F)F)c2)nn1-c1ccnc(C)c1` [Compound 37, (alphaS)-alpha-ethyl-1-(2-methyl-4-pyridinyl)-3-[[3-(trifluoromethyl)phenyl]amino]-1H-pyrazole-5-ethanol] were, in that order, 169.5 °C, 2 and 2290 nM.
In the same order, the values of `Cc1cc(-n2nc(Nc3cccc(OC(F)(F)F)c3)cc2CC(=O)NC(C)C)cc(C)n1` [Compound 116, 1-(2,6-dimethyl-4-pyridinyl)-N-(1-methylethyl)-3-[[3-(trifluoromethoxy)phenyl]amino]-1H-pyrazole-5-acetamide] are 229.1 °C, 2 and 245 nM.
As for `Cc1cc(-n2nc(Nc3cccc(OC(F)(F)F)c3)cc2CC(=O)NCC2CC2)cc(C)n1` [Compound 120, N-(cyclopropylmethyl)-1-(2,6-dimethyl-4-pyridinyl)-3-[[3-(trifluoromethoxy)phenyl]amino]-1H-pyrazole-5-acetamide], the melting point amounted to 199.4 °C. The PAM type at hα7-wt nAChR [1] came out at 2. Also, on hα7-wt nAChR [2], the EC50 is 141 nM.

The values are drawn from patent US8791144B2, “Substituted N-phenyl-1-(4-Pyridinyl)-1H-pyrazol-3-amines” (Janssen Pharmaceutica NV, priority 2009, dated 2014).
